From PMC4180818 (Metabolic brain disease, 2013) come the findings set out here.

In general, Ki refers to a dissociation constant, usually derived from enzyme kinetics or from competition with a known ligand.

For the test, the target named is human glutamine synthetase (Homo sapiens, UniProt P15104). Kind of test: coupled pyruvate kinase/lactate dehydrogenase NADH assay. The class given is biochemical.
Chain of human glutamine synthetase (P15104 2-373): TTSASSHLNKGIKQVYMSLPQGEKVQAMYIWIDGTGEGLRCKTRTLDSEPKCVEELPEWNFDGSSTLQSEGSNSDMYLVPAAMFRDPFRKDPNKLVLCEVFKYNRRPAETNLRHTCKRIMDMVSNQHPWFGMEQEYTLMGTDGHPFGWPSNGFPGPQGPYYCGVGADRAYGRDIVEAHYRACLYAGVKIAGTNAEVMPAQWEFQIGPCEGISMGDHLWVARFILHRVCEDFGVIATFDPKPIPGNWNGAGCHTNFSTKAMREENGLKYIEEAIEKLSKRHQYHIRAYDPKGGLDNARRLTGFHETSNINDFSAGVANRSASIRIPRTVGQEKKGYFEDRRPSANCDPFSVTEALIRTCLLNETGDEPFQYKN

For the molecule `CS(=N)(=O)CCC(N)C(=O)O` (mixture of isomers) [MSO, L-methionine-S,R-sulfoximine], the Ki was 1190 µM.
